Anisotropy r value data for 1 substance are collected here from US7445894B2, “Compositions and methods for detection and isolation of phosphorylated molecules” (priority 2002, dated 2008).

This test concerns the target T1, ovalbumin (Gallus gallus, UniProt P01012).
T1 construct: purchased Sigma Chemical Company A-7641
T1 sequence (P01012 1-386): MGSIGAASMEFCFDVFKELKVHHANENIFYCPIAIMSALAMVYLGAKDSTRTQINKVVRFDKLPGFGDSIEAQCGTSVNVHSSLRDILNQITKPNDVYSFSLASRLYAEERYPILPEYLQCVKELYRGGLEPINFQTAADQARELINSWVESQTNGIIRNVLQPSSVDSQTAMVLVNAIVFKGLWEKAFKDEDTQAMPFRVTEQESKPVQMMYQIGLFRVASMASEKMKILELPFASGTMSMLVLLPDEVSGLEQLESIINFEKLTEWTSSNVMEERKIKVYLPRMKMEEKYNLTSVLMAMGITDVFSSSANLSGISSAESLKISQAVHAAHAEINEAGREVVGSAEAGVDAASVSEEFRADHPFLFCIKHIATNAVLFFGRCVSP
Nature of the test: Fluorescence polarization of Compound 2-Ga3+ with phosphoprotein. It counts as binding. To be noted: 1.0 μM Compound 2, 100 μM ovalbumin plus 1 μM gallium chloride. Here is the method: First, an assay was conducted with a (1) phosphoprotein (ovalbumin) and a (2) control non-phosphorylated protein (lysozyme). A modified binding solution containing 1.0 μM Compound 2 was incubated in 50 mM 2-(N-morpholino)ethanesulfonic acid (pH 3.0 to 3.5), 500 mM NaCl at room temperature in parallel to solutions containing, in addition, (a) 1 μM gallium chloride, (b) 100 μM lysozyme plus 1 μM gallium chloride, or (c) and 100 μM ovalbumin plus 1 μM gallium chloride. The fluorescence polarization of the resulting solutions was then measured in a fluorescence spectrophotometer with excitation at 530 nm and emission at 545 to 700 nm. The integrated polarized emission spectra yielded anisotropy “r values” of: r=0.10+/−0.003+/−0.02 (Compound 2 plus gallium); r=0.10+/−0.002 (Compound 2 plus lysozyme non-phosphorylated control); r=0.34+/−0.002 (Compound 2 plus gallium plus ovalbumin), indicating phosphorylation-dependent binding of the Compound 2 to this phosphoprotein (see FIG. 10A)

With Rhod-5F [Compound 2], the anisotropy r value is 0.34+/−0.002.
